ChEMBL document CHEMBL1268814, “Synthesis and biological evaluation of bivalent ligands for the cannabinoid 1 receptor” (J Med Chem, 2010)

Molecular target: Cannabinoid receptor 1 (Rattus norvegicus) (UniProt P20272)
Assay: Antagonist activity at rat brain CB1 receptor assessed as inhibition of [35S]GTPgammaS binding at 10000 nM
Format: functional
Conditions: not given

Sequence of Cannabinoid receptor 1 (Rattus norvegicus) (P20272 whole entry): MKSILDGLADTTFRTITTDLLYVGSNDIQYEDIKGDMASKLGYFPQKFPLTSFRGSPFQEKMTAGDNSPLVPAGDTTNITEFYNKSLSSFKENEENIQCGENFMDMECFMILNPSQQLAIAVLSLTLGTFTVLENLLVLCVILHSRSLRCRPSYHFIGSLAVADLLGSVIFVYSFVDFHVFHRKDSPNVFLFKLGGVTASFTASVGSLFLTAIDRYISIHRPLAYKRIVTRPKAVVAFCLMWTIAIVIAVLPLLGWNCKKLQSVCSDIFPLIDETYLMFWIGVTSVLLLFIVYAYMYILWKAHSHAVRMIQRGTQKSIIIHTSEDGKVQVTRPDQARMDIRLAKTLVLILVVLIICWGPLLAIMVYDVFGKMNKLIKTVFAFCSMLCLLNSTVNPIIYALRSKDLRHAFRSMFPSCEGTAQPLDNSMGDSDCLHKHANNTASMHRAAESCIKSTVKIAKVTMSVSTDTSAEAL

| SMILES | Emax |
| --- | --- |
| Cc1c(C(=O)NCCCCCCCCCCCNCCCCCCCCCCCN)nn(-c2ccc(Cl)cc2Cl)c1-c1ccc(Cl)cc1 | -29.2% |
| Cc1c(C(=O)NCCCCCCCCCNCCCCCCCCCNC(=O)c2nn(-c3ccc(Cl)cc3Cl)c(-c3ccc(Cl)cc3)c2C)nn(-c2ccc(Cl)cc2Cl)c1-c1ccc(Cl)cc1 | 10.4% |
| Cc1c(C(=O)NCCCCCN(C)CCCCCN)nn(-c2ccc(Cl)cc2Cl)c1-c1ccc(Cl)cc1 | -53.3% |
| Cc1c(C(=O)NCCCCCN(C)CCCCCNC(=O)c2nn(-c3ccc(Cl)cc3Cl)c(-c3ccc(Cl)cc3)c2C)nn(-c2ccc(Cl)cc2Cl)c1-c1ccc(Cl)cc1 | -3.8% |
| Cc1c(C(=O)NCCCNCCCNC(=O)c2nn(-c3ccc(Cl)cc3Cl)c(-c3ccc(Cl)cc3)c2C)nn(-c2ccc(Cl)cc2Cl)c1-c1ccc(Cl)cc1 | -37.2% |

Molecular target: T1, Cannabinoid receptor 1 (Homo sapiens, UniProt P21554)
T1 sequence (P21554 whole entry): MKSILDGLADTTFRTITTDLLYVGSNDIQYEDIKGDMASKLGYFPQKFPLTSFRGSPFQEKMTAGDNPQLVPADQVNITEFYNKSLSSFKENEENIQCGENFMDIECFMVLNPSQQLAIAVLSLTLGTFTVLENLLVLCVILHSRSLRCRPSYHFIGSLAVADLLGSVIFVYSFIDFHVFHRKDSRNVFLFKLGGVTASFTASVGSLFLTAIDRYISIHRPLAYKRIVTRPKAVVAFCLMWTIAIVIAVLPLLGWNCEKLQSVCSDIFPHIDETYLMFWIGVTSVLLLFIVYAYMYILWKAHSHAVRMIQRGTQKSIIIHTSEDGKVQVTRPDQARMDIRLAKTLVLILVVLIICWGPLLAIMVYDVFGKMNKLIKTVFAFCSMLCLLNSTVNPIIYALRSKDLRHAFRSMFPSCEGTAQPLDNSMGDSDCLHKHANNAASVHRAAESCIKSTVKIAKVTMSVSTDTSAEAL
Assay: Antagonist activity at human brain CB1 receptor assessed as inhibition for [35S]GTPgammaS binding
Format: functional
Conditions: not given

| SMILES | EC50 |
| --- | --- |
| Cc1c(C(=O)NCCCCCCCCCNCCCCCCCCCNC(=O)c2nn(-c3ccc(Cl)cc3Cl)c(-c3ccc(Cl)cc3)c2C)nn(-c2ccc(Cl)cc2Cl)c1-c1ccc(Cl)cc1 | 27.9 nM |
| Cc1c(C(=O)NCCCCCN(C)CCCCCNC(=O)c2nn(-c3ccc(Cl)cc3Cl)c(-c3ccc(Cl)cc3)c2C)nn(-c2ccc(Cl)cc2Cl)c1-c1ccc(Cl)cc1 | 59.8 nM |
| Cc1c(C(=O)NCCCNCCCNC(=O)c2nn(-c3ccc(Cl)cc3Cl)c(-c3ccc(Cl)cc3)c2C)nn(-c2ccc(Cl)cc2Cl)c1-c1ccc(Cl)cc1 | 84.2 nM |

Molecular target: Cannabinoid receptor 1 (Rattus norvegicus, UniProt P20272)
Sequence (P20272 whole entry): as the sequence (P20272 whole entry) above
Assay: Antagonist activity at rat brain CB1 receptor assessed as inhibition of [35S]GTPgammaS binding
Format: functional
Conditions: not given

| SMILES | EC50 |
| --- | --- |
| Cc1c(C(=O)NCCCCCCCCCCCNCCCCCCCCCCCN)nn(-c2ccc(Cl)cc2Cl)c1-c1ccc(Cl)cc1 | 3620 nM |
| Cc1c(C(=O)NCCCCCCCCCNCCCCCCCCCNC(=O)c2nn(-c3ccc(Cl)cc3Cl)c(-c3ccc(Cl)cc3)c2C)nn(-c2ccc(Cl)cc2Cl)c1-c1ccc(Cl)cc1 | 1.34 nM |
| Cc1c(C(=O)NCCCCCN(C)CCCCCN)nn(-c2ccc(Cl)cc2Cl)c1-c1ccc(Cl)cc1 | 3040 nM |
| Cc1c(C(=O)NCCCCCN(C)CCCCCNC(=O)c2nn(-c3ccc(Cl)cc3Cl)c(-c3ccc(Cl)cc3)c2C)nn(-c2ccc(Cl)cc2Cl)c1-c1ccc(Cl)cc1 | 1.78 nM |
| Cc1c(C(=O)NCCCNCCCNC(=O)c2nn(-c3ccc(Cl)cc3Cl)c(-c3ccc(Cl)cc3)c2C)nn(-c2ccc(Cl)cc2Cl)c1-c1ccc(Cl)cc1 | 718 nM |

Molecular target: T1, Cannabinoid receptor 1
Assay: Antagonist activity at human brain CB1 receptor assessed as inhibition for [35S]GTPgammaS binding at 10000 nM
Format: functional
Conditions: not given

| SMILES | Emax |
| --- | --- |
| Cc1c(C(=O)NCCCCCCCCCNCCCCCCCCCNC(=O)c2nn(-c3ccc(Cl)cc3Cl)c(-c3ccc(Cl)cc3)c2C)nn(-c2ccc(Cl)cc2Cl)c1-c1ccc(Cl)cc1 | 6.5% |
| Cc1c(C(=O)NCCCCCN(C)CCCCCNC(=O)c2nn(-c3ccc(Cl)cc3Cl)c(-c3ccc(Cl)cc3)c2C)nn(-c2ccc(Cl)cc2Cl)c1-c1ccc(Cl)cc1 | -13.1% |
| Cc1c(C(=O)NCCCNCCCNC(=O)c2nn(-c3ccc(Cl)cc3Cl)c(-c3ccc(Cl)cc3)c2C)nn(-c2ccc(Cl)cc2Cl)c1-c1ccc(Cl)cc1 | -31.9% |

Molecular target: T1, Cannabinoid receptor 1
Assay: not given
Conditions: CHO

| SMILES | Ke |
| --- | --- |
| Cc1c(C(=O)NCCCCCCCCCCCNCCCCCCCCCCCN)nn(-c2ccc(Cl)cc2Cl)c1-c1ccc(Cl)cc1 | 146 nM |
| Cc1c(C(=O)NCCCCCCCCCNCCCCCCCCCNC(=O)c2nn(-c3ccc(Cl)cc3Cl)c(-c3ccc(Cl)cc3)c2C)nn(-c2ccc(Cl)cc2Cl)c1-c1ccc(Cl)cc1 | 4160 nM |
| Cc1c(C(=O)NCCCCCN(C)CCCCCN)nn(-c2ccc(Cl)cc2Cl)c1-c1ccc(Cl)cc1 | 2870 nM |
| Cc1c(C(=O)NCCCCCN(C)CCCCCNC(=O)c2nn(-c3ccc(Cl)cc3Cl)c(-c3ccc(Cl)cc3)c2C)nn(-c2ccc(Cl)cc2Cl)c1-c1ccc(Cl)cc1 | 108 nM |
| Cc1c(C(=O)NCCCNCCCNC(=O)c2nn(-c3ccc(Cl)cc3Cl)c(-c3ccc(Cl)cc3)c2C)nn(-c2ccc(Cl)cc2Cl)c1-c1ccc(Cl)cc1 | 1300 nM |

Molecular target: T1, Cannabinoid receptor 1
Assay: Antagonist activity at human brain CB1 receptor by calcium mobilization assay
Format: functional
Conditions: read-out: pA2 (converted)

| SMILES | Kb |
| --- | --- |
| Cc1c(C(=O)NCCCCCCCCCCCNCCCCCCCCCCCN)nn(-c2ccc(Cl)cc2Cl)c1-c1ccc(Cl)cc1 | 3.16 nM |
| Cc1c(C(=O)NCCCCCCCCCNCCCCCCCCCNC(=O)c2nn(-c3ccc(Cl)cc3Cl)c(-c3ccc(Cl)cc3)c2C)nn(-c2ccc(Cl)cc2Cl)c1-c1ccc(Cl)cc1 | 17.4 nM |
| Cc1c(C(=O)NCCCCCN(C)CCCCCN)nn(-c2ccc(Cl)cc2Cl)c1-c1ccc(Cl)cc1 | 309 nM |
| Cc1c(C(=O)NCCCCCN(C)CCCCCNC(=O)c2nn(-c3ccc(Cl)cc3Cl)c(-c3ccc(Cl)cc3)c2C)nn(-c2ccc(Cl)cc2Cl)c1-c1ccc(Cl)cc1 | 11 nM |
| Cc1c(C(=O)NCCCNCCCNC(=O)c2nn(-c3ccc(Cl)cc3Cl)c(-c3ccc(Cl)cc3)c2C)nn(-c2ccc(Cl)cc2Cl)c1-c1ccc(Cl)cc1 | 38.9 nM |

Molecular target: T1, Cannabinoid receptor 1
Assay: biochemical
Format: cell-based, HEK293
Conditions: not given

| SMILES | Ki |
| --- | --- |
| Cc1c(C(=O)NCCCCCCCCCCCNCCCCCCCCCCCN)nn(-c2ccc(Cl)cc2Cl)c1-c1ccc(Cl)cc1 | 2.3 nM |
| Cc1c(C(=O)NCCCCCCCCCNCCCCCCCCCNC(=O)c2nn(-c3ccc(Cl)cc3Cl)c(-c3ccc(Cl)cc3)c2C)nn(-c2ccc(Cl)cc2Cl)c1-c1ccc(Cl)cc1 | 57.4 nM |
| Cc1c(C(=O)NCCCCCN(C)CCCCCN)nn(-c2ccc(Cl)cc2Cl)c1-c1ccc(Cl)cc1 | 88.8 nM |
| Cc1c(C(=O)NCCCCCN(C)CCCCCNC(=O)c2nn(-c3ccc(Cl)cc3Cl)c(-c3ccc(Cl)cc3)c2C)nn(-c2ccc(Cl)cc2Cl)c1-c1ccc(Cl)cc1 | 6.35 nM |
| Cc1c(C(=O)NCCCNCCCNC(=O)c2nn(-c3ccc(Cl)cc3Cl)c(-c3ccc(Cl)cc3)c2C)nn(-c2ccc(Cl)cc2Cl)c1-c1ccc(Cl)cc1 | 41.9 nM |

Molecular target: Cannabinoid receptor 2 (Homo sapiens, UniProt P34972)
Sequence (P34972 whole entry): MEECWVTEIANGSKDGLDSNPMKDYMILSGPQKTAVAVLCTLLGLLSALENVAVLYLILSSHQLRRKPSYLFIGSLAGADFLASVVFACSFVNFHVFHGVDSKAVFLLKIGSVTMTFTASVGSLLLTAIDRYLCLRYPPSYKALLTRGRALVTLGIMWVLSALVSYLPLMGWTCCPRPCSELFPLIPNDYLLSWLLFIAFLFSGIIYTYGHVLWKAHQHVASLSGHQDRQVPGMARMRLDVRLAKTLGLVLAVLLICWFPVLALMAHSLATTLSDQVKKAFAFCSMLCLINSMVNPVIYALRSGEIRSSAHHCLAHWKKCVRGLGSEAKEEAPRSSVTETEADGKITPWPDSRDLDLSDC
Assay: Displacement of [3H]CP55940 from human CB2 receptor expressed in CHOK1 cells
Format: cell-based, CHO-K1
Conditions: not given

| SMILES | Ki |
| --- | --- |
| Cc1c(C(=O)NCCCCCCCCCCCNCCCCCCCCCCCN)nn(-c2ccc(Cl)cc2Cl)c1-c1ccc(Cl)cc1 | 305 nM |
| Cc1c(C(=O)NCCCCCCCCCNCCCCCCCCCNC(=O)c2nn(-c3ccc(Cl)cc3Cl)c(-c3ccc(Cl)cc3)c2C)nn(-c2ccc(Cl)cc2Cl)c1-c1ccc(Cl)cc1 | > 2500 nM |
| Cc1c(C(=O)NCCCCCN(C)CCCCCNC(=O)c2nn(-c3ccc(Cl)cc3Cl)c(-c3ccc(Cl)cc3)c2C)nn(-c2ccc(Cl)cc2Cl)c1-c1ccc(Cl)cc1 | 1040 nM |
| Cc1c(C(=O)NCCCNCCCNC(=O)c2nn(-c3ccc(Cl)cc3Cl)c(-c3ccc(Cl)cc3)c2C)nn(-c2ccc(Cl)cc2Cl)c1-c1ccc(Cl)cc1 | 496 nM |

Molecular target: T1, Cannabinoid receptor 1
Assay: Displacement of [3H]CP55940 from human CB1 receptor expressed in HEK293 cells
Format: cell-based
Conditions: not given

| SMILES | Ki |
| --- | --- |
| Cc1c(C(=O)NCCCCCCCCCCCNCCCCCCCCCCCN)nn(-c2ccc(Cl)cc2Cl)c1-c1ccc(Cl)cc1 | 4.56 nM |
| Cc1c(C(=O)NCCCCCCCCCNCCCCCCCCCNC(=O)c2nn(-c3ccc(Cl)cc3Cl)c(-c3ccc(Cl)cc3)c2C)nn(-c2ccc(Cl)cc2Cl)c1-c1ccc(Cl)cc1 | 54.1 nM |
| Cc1c(C(=O)NCCCCCN(C)CCCCCN)nn(-c2ccc(Cl)cc2Cl)c1-c1ccc(Cl)cc1 | 162 nM |
| Cc1c(C(=O)NCCCCCN(C)CCCCCNC(=O)c2nn(-c3ccc(Cl)cc3Cl)c(-c3ccc(Cl)cc3)c2C)nn(-c2ccc(Cl)cc2Cl)c1-c1ccc(Cl)cc1 | 38.7 nM |
| Cc1c(C(=O)NCCCNCCCNC(=O)c2nn(-c3ccc(Cl)cc3Cl)c(-c3ccc(Cl)cc3)c2C)nn(-c2ccc(Cl)cc2Cl)c1-c1ccc(Cl)cc1 | 174 nM |
